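Protocol summary: plate cells (96-well), add compound at 5 concentrations, incubate 48 h, interpolate endpoints linearly. GI50 is the concentration that inhibits growth by half.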 Activity calls are given as the source filed them. Cut-off read from the data, not from the text of the source: active = GI50 up to about 1.1 µM and inactive = higher.
How the values were obtained:
Test in all cases: NCI anticancer screen, dose series, 48 h
ACHN = tested on: ACHN
CCRF-CEM = tested on: CCRF-CEM
HCT-116 = tested on: HCT-116
HL-60 = tested on: HL-60
HOP-92 = tested on: HOP-92
K562 = tested on: K562
MOLT-4 = tested on: MOLT-4
NCI-H226 = tested on: NCI-H226
OVCAR-4 = tested on: OVCAR-4
RPMI-8226 = tested on: RPMI-8226
RXF 393 = tested on: RXF 393
SF-295 = tested on: SF-295
SF-539 = tested on: SF-539
SK-MEL-28 = tested on: SK-MEL-28
SK-MEL-2 = tested on: SK-MEL-2
SK-MEL-5 = tested on: SK-MEL-5
SNB-19 = tested on: SNB-19
SNB-75 = tested on: SNB-75
UACC-257 = tested on: UACC-257
UO-31 = tested on: UO-31

Measured: GI50

O=C1OC(=O)c2c1cc1cc3c(cc1c2-c1ccc2c(c1)OCO2)OCO3
inactive: ACHN > 100 µM | CCRF-CEM > 100 µM | HCT-116 > 100 µM | HL-60 > 100 µM | HOP-92 > 100 µM | K562 > 100 µM | MOLT-4 > 100 µM | NCI-H226 > 100 µM | OVCAR-4 > 100 µM | RPMI-8226 > 100 µM | RXF 393 > 100 µM | SF-295 > 100 µM | SF-539 > 100 µM | SK-MEL-28 > 100 µM | SK-MEL-2 > 100 µM | SK-MEL-5 > 100 µM | SNB-19 > 100 µM | SNB-75 > 100 µM | UACC-257 > 100 µM | UO-31 > 100 µM

CC(C)(C)OC(=O)NC(CSSCC(NC(=O)OC(C)(C)C)C(=O)O)C(=O)O (stereo not drawn)
inactive: ACHN > 100 µM | CCRF-CEM > 100 µM | HCT-116 > 100 µM | HL-60 > 100 µM | HOP-92 > 100 µM | K562 > 100 µM | MOLT-4 > 100 µM | NCI-H226 > 100 µM | OVCAR-4 > 100 µM | RPMI-8226 > 100 µM | RXF 393 > 100 µM | SF-295 > 100 µM | SF-539 > 100 µM | SK-MEL-28 > 100 µM | SK-MEL-2 > 100 µM | SK-MEL-5 > 100 µM | SNB-19 > 100 µM | SNB-75 > 100 µM | UACC-257 > 100 µM | UO-31 > 100 µM

N#CC(=S)Nc1ccc(F)cc1
inactive: ACHN 60 µM | CCRF-CEM 22.4 µM | HCT-116 86.1 µM | HL-60 30.4 µM | HOP-92 19.4 µM | K562 23.9 µM | MOLT-4 31.3 µM | NCI-H226 78.5 µM | OVCAR-4 28.6 µM | RPMI-8226 8.22 µM | RXF 393 42.1 µM | SF-295 51.6 µM | SF-539 38.2 µM | SK-MEL-28 45.5 µM | SK-MEL-2 > 100 µM | SK-MEL-5 17 µM | SNB-19 > 100 µM | SNB-75 > 100 µM | UACC-257 30.6 µM

CCOC(=O)C(NC(=O)c1cccc(Cl)c1)(Nc1ccc(S(=O)(=O)Nc2cc(C)on2)cc1)C(F)(F)F (stereo not drawn)
inactive: ACHN > 100 µM | CCRF-CEM > 100 µM | HCT-116 > 100 µM | HL-60 > 100 µM | HOP-92 > 100 µM | K562 > 100 µM | MOLT-4 > 100 µM | NCI-H226 > 100 µM | OVCAR-4 > 100 µM | RPMI-8226 > 100 µM | RXF 393 42.5 µM | SF-295 14.4 µM | SF-539 > 100 µM | SK-MEL-28 > 100 µM | SK-MEL-2 > 100 µM | SK-MEL-5 > 100 µM | SNB-19 > 100 µM | SNB-75 > 100 µM | UACC-257 > 100 µM | UO-31 > 100 µM

CN1c2ccccc2N(C(=O)c2ccc([N+](=O)[O-])cc2)C(CC(=O)O)c2cccn21 (stereo not drawn)
inactive: ACHN > 100 µM | CCRF-CEM > 100 µM | HL-60 > 100 µM | HOP-92 > 100 µM | K562 > 100 µM | MOLT-4 > 100 µM | NCI-H226 > 100 µM | OVCAR-4 > 100 µM | RPMI-8226 > 100 µM | RXF 393 > 100 µM | SF-295 > 100 µM | SF-539 > 100 µM | SK-MEL-28 > 100 µM | SK-MEL-2 > 100 µM | SK-MEL-5 > 100 µM | SNB-19 > 100 µM | SNB-75 > 100 µM | UACC-257 > 100 µM | UO-31 > 100 µM

C=C1CC[C@](C)(O)[C@@]2(C)CC[C@H]3C(=C(C)C)C(=O)C[C@]3(C)C[C@H]12
inactive: ACHN 42.8 µM | CCRF-CEM 10.9 µM | HCT-116 14.8 µM | HL-60 7.6 µM | HOP-92 > 50 µM | K562 8.73 µM | MOLT-4 10.9 µM | NCI-H226 > 50 µM | OVCAR-4 > 50 µM | RPMI-8226 17.9 µM | RXF 393 18.2 µM | SF-295 > 50 µM | SF-539 > 50 µM | SK-MEL-28 43.7 µM | SK-MEL-2 > 50 µM | SK-MEL-5 22.1 µM | SNB-19 > 50 µM | SNB-75 29 µM | UACC-257 > 50 µM | UO-31 20 µM

COC1O[C@H]2CCN(C(=O)OCc3ccccc3)[C@H]2[C@H]1OCc1ccccc1 (stereo partly drawn)
inactive: ACHN 39.6 µM | CCRF-CEM 34.9 µM | HCT-116 46.6 µM | HL-60 28.4 µM | HOP-92 26.6 µM | K562 30.5 µM | MOLT-4 36 µM | NCI-H226 78 µM | OVCAR-4 > 62.4 µM | RPMI-8226 41 µM | RXF 393 50 µM | SF-295 49.9 µM | SF-539 > 100 µM | SK-MEL-28 41.2 µM | SK-MEL-2 29.8 µM | SK-MEL-5 24.1 µM | SNB-19 89.3 µM | SNB-75 41.9 µM | UACC-257 43.8 µM | UO-31 29.2 µM
